Key:
[1] = Solubility test (supersaturated solubility by HPLC); type: physicochemical; conditions: pH 4.0 citric acid/disodium hydrogen phosphate buffer, aqueous buffer, thermodynamic from solid, pH 4.0 citrate buffer, 37° C., shaker 100 rpm, equivalent to 10 mg olaparib in 5 ml, average of 2 runs
Method: The dissolution-enhanced olaparib compositions prepared in Preparation Examples 1-3 and Comparative Examples 1-8 and the olaparib API (free base) were taken in an amount equivalent to 10 mg of olaparib, dispersed in 5 ml of a pH 4.0 buffer (citric acid: 21 g/L: disodium hydrogen phosphate 71.63 g/L=61.45:38.55) as the solvent and shaken in a shaker at 100 rpm for 2 h at 37° C., and sampled. The samples were centrifugal filtered and measured by HPLC to determine the supersaturated solubility. The average value was obtained from 2 parallel runs.
The operation conditions of the HPLC were:
Apparatus: A liquid chromatograph with a UV detector;
Chromatographic Waters Sunfire C18, 4.6 mm*50 mm
Eluent: A: 0.1% TFA in water; B: 0.1% TFA in acetonitrile;

[2] = within the physiological pH range; cited from earlier work
[3] = cited from earlier work

**Q.** What does the source list for `O=C(c1cc(Cc2n[nH]c(=O)c3ccccc23)ccc1F)N1CCN(C(=O)C2CC2)CC1` [Olaparib API, 1-(cyclopropanoyl)-4-[5-[(3,4-dihydro-4-oxo-1-phthalazinyl)methyl]-2-fluorobenzoyl]piperazine]?
**A.** solubility at 2 h [1]: 118 µg/mL; solubility [2]: less than 0.2 mg/ml; permeability [3]: medium
